Test results from patent publication US20240246966A1, “NEW PYRAZOLO[1,5-a] PYRIMIDINE DERIVATIVES AS SIGMA LIGANDS” (ACONDICIONAMIENTO TARRASENSE, priority 2021, published 2024).

Tests used:
[1] = molecular target: sigma-2 (σ2) site (Homo sapiens, UniProt Q5BJF2); conditions: background statement; cited from earlier work
[2] = test system: mechanical hypersensitivity in SNI mice; conditions: spared nerve injury (SNI) mice model of neuropathic pain; cited from earlier work
[3] = molecular target: T1, Human σ2/TMEM97 receptor (Homo sapiens, UniProt Q5BJF2); test: Binding assay to human σ2/TMEM97 receptor ([3H]-DTG, transfected HEK-293 membranes); conditions: human σ2/TMEM97, [3H]-DTG 10 nM, binding expressed as Ki, read-out: Binding σ-2
T1 construct: expressed in transfected cells; host or cells: HEK-293
T1 sequence (Q5BJF2 whole entry): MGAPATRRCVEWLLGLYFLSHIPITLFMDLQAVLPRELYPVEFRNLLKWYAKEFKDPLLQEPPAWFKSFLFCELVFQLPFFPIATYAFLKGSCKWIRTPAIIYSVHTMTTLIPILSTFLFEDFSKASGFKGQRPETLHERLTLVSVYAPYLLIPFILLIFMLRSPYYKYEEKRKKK
Description: Binding Assay to Human ρ2/TMEM97 Receptor
Transfected HEK-293 membranes (15 μg) were incubated with 10 nM [^3H]-1,3-Di-o-tolylguanidine ( DTG) in assay buffer containing Tris-HCl 50 mM at pH 8.0. NSB (non-specific binding) was measured by adding 10 μM haloperidol. The binding of the test compound was measured at either one concentration (% inhibition at 1 or 10 μM) or five different concentrations to determine affinity values (Ki). Plates were incubated at 25° C. for 120 minutes. After the incubation period, the reaction mix was transferred to MultiScreen HTS, FC plates (Millipore), filtered and washed 3 times with ice-cold 10 mM Tris-HCL (pH 8.0). Filters were dried and counted at approximately 40% efficiency in a MicroBeta scintillation counter (Perkin-Elmer) using EcoScint liquid scintillation cocktail.

[4] = molecular target: T2, Human σ1 Receptor (Homo sapiens, UniProt Q99720); test: Human σ1 receptor radioligand assay ([3H](+)-pentazocine, transfected HEK-293 membranes); conditions: human σ1, [3H](+)-pentazocine 5 nM, binding expressed as Ki, read-out: Binding σ-1
T2 construct: expressed in transfected cells; host or cells: HEK-293
T2 sequence (Q99720 whole entry): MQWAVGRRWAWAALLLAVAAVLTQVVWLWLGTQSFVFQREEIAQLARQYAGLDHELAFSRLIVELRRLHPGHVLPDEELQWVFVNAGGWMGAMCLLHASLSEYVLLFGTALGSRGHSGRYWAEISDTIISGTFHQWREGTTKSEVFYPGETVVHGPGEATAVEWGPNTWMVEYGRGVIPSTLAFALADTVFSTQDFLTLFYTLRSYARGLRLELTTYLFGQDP
Description: Human σ1 Receptor Radioligand Assay
Transfected HEK-293 membranes (7 μg) were incubated with 5 nM of [^3H](+)-pentazocine in assay buffer containing Tris-HCl 50 mM at pH 8. NBS (non-specific binding) was measured by adding 10 μM haloperidol. The binding of the test compound was measured at either one concentration (% inhibition at 1 or 10 μM) or five different concentrations to determine affinity values (Ki). Plates were incubated at 37° C. for 120 minutes. After the incubation period, the reaction mix was then transferred to MultiScreen HTS, FC plates (Millipore), filtered and plates were washed 3 times with ice-cold 10 mM Tris-HCL (pH 7.4). Filters were dried and counted at approximately 40% efficiency in a MicroBeta scintillation counter (Perkin-Elmer) using EcoScint liquid scintillation cocktail.

sigma-2 (σ2) site, sequence (Q5BJF2 whole entry): as the sequence (Q5BJF2 whole entry) above

Compound	affinity for the sigma-2 (σ2) site [1]	mechanical hypersensitivity [2]	Ki [3]	Ki [4]
(+)-SKF-10047	micromolar affinity			
UKH-1114		relieved mechanical hypersensitivity		
FC(F)(F)c1cc(-c2cnn3cc(CN4CCC5(CCOCC5)CC4)cnc23)ccn1 [Example 32, 9-((3-(2-(Trifluoromethyl)pyridin-4-yl)pyrazolo[1,5-a]pyrimidin-6-yl)methyl)-3-oxa-9-azaspiro[5.5]undecane]			100 to 500 nM	< 100 nM
COCC1CCN(Cc2cnc3c(ccn3-c3ccnc(C(F)(F)F)c3)c2)CC1 [Example 39, 5-((4-(Methoxymethyl)piperidin-1-yl)methyl)-1-(2-(trifluoromethyl)pyridin-4-yl)-1H-pyrrolo[2,3-b]pyridine]			100 to 500 nM	< 100 nM
Cc1nn2cc(CN3CCC4(CC3)COC4)cnc2c1-c1ccnc(C(F)(F)F)c1 [Example 20, 7-((2-Methyl-3-(2-(trifluoromethyl)pyridin-4-yl)pyrazolo[1,5-a]pyrimidin-6-yl)methyl)-2-oxa-7-azaspiro[3.5]nonane]			500 to 1000 nM	100 to 500 nM
c1cc(-c2cnn3cc(CN4CCCC4)cnc23)ccn1 [Example 2, 3-(Pyridin-4-yl)-6-(pyrrolidin-1-ylmethyl)pyrazolo[1,5-a]pyrimidine]			> 1000 nM	100 to 500 nM
Cc1cc(-c2cnn3cc(CN4CCC5(CC4)COC5)cnc23)ccn1 [Example 15, 7-((3-(2-Methylpyridin-4-yl)pyrazolo[1,5-a]pyrimidin-6-yl)methyl)-2-oxa-7-azaspiro[3.5]nonane]			> 1000 nM	< 100 nM
